We go through 3 molecules from US20070010478A1 (priority 2005, published 2007).

The structures appear in SMILES notation.

Data set [1] concerns the target P450 isoenzyme 3A4 (Homo sapiens, UniProt P08684). To be noted: cited from earlier work.
Data set [2] has as its target T1, P-gp (Homo sapiens, UniProt P08183).
T1 construct: endogenous in cells; host or cells: circulating NK cells and leukemic blasts of AML patients
In words: cellular P-gp function, DiOC2 accumulation assay with flow cytometry, in AML patients. Type of data set: in vivo. The note with it: circulating NK cells and leukemic blasts; 700 mg/day continuous iv infusion. The protocol: Cytarabine was also administered (100 mg/m^2/day) starting after the first dose of daunorubicin as a continuous intravenous infusion on days 1-7. Blood samples were taken at intervals for pharmacokinetic and pharmacodynamic studies. Pharmacokinetic drug determinations were conducted by HPLC. Pharmacodynamic assessments of cellular P-gp function were conducted using an accumulation assay with DiOC2 and flow cytometry. P-gp function was assessed on circulating natural killer (NK) cells and leukemic blasts. […] Means of 3 patients for each time point are shown.
For orientation: A flow cytometer gives signals particle by particle.

Sequence of P450 isoenzyme 3A4 (P08684 whole entry): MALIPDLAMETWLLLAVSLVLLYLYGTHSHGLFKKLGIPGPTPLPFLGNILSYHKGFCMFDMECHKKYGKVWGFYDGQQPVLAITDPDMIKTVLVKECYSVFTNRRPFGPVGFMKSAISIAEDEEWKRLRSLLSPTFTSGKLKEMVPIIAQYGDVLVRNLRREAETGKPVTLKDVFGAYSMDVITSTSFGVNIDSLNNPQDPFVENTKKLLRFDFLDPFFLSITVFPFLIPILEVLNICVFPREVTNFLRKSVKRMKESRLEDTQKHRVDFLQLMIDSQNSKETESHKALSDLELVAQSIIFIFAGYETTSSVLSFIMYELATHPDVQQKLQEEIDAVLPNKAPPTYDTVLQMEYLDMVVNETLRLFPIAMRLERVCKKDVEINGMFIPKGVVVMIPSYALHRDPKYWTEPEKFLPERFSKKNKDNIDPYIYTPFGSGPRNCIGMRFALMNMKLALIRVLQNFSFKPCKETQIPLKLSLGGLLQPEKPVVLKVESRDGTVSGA
T1 sequence (P08183 whole entry): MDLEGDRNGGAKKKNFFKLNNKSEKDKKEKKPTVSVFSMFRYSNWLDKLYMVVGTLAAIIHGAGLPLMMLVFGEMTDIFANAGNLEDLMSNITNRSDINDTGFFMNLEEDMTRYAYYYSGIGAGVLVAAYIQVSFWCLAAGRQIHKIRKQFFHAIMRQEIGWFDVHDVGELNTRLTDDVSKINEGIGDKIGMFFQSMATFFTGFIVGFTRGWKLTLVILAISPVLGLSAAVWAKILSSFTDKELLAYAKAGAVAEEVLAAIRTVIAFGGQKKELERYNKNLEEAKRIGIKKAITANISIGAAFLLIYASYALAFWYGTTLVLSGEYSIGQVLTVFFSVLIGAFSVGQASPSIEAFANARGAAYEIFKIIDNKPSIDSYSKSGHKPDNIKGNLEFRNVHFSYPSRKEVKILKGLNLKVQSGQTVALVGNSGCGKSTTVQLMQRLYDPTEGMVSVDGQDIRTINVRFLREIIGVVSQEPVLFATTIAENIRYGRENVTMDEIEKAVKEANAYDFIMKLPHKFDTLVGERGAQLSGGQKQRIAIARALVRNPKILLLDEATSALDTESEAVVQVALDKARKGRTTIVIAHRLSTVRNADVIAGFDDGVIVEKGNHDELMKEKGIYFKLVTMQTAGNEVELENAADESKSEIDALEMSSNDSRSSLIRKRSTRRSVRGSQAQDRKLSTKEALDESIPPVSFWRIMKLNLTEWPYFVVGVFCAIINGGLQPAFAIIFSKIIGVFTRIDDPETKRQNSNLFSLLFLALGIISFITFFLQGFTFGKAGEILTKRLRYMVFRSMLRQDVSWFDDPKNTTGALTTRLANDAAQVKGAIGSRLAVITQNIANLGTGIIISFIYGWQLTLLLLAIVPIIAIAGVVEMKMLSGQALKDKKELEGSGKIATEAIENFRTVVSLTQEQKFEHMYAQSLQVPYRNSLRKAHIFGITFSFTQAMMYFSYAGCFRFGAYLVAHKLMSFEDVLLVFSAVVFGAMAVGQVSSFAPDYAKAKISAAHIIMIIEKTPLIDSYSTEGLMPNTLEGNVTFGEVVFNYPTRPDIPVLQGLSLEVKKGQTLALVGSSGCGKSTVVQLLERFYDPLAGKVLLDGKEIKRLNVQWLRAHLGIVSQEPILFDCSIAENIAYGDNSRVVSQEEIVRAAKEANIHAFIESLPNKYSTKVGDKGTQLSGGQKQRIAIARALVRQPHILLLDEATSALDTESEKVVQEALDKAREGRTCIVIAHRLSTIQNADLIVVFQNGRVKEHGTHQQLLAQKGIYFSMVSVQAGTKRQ

For `COc1cc(C(=O)C(=O)N2CCCC[C@H]2C(=O)OC(CCCc2cccnc2)CCCc2cccnc2)cc(OC)c1OC` [biricodar], the “substrate for the P450 isoenzyme 3A4” value in data set [1] is given as “substrates for the P450 isoenzyme 3A4”.

For the molecule `C/C=C/C[C@@H](C)C(=O)[C@H]1C(=O)N[C@@H](C(C)C)C(=O)N(C)CC(=O)N(C)[C@@H](CC(C)C)C(=O)N[C@@H](C(C)C)C(=O)N(C)[C@@H](CC(C)C)C(=O)N[C@@H](C)C(=O)N[C@H](C)C(=O)N(C)[C@@H](CC(C)C)C(=O)N(C)[C@@H](CC(C)C)C(=O)N(C)[C@@H](C(C)C)C(=O)N1C` [valspodar], in data set [1], the “substrate for the P450 isoenzyme 3A4” value was “substrates for the P450 isoenzyme 3A4”.

In the case of `O[C@@H](COc1cccc2ncccc12)CN1CCN([C@@H]2c3ccccc3[C@@H]3[C@H](c4ccccc42)C3(F)F)CC1` [zosuquidar], the “time to potent inhibition of P-gp function after start of zosuquidar infusion” value in data set [2] was not above 2 h.
